Here are results for twelve compounds from patent US20160176924A1, “MODIFIED PEPTIDES AS POTENT INHIBITORS OF THE PSD-95/NMDA RECEPTOR INTERACTION” (priority 2008, published 2016).

Read-outs that look alike come from different tables or passages of the source. Square brackets hold non-standard residues; d marks the D form. Ends that are not written are not given here. Peptide text beside a SMILES is read from it. NMeE = CN[C@@H](CCC(=O)O)C(=O)O

A short description of data set [1]: Human blood plasma stability assay. The class given is in vitro ADME. How it is done:
In this assay, the half-life (T1/2) of a compound in blood plasma is measured in vitro, whereby its susceptibility to degradation by proteases, peptidases and general plasma contents is quantified.
Compounds of interest were dissolved in human blood plasma (270 μl; 3H Biomedical, Sweden, cat no 1300-1-P50) to a concentration of 0.25 mM (30 μL of 2.5 mM) and incubated at 37° C. Aliquots (30 μl) were removed at various time intervals (0, 5, 10, 20, 40, 80, 160, 320, 960, 1280, 2550, 4560 and 7240 min) and quenched with 60 μL trichloroacetic acid (aq., 5%). The aliquots were vortexed, and incubated for at least 15 min, at 4° C. prior to centrifugation at 18,000 g for 2 min and the supernatant was analyzed by RP-HPLC to quantify the remaining compound (absorbance at 218 nm).

Data set [2] has as its target T1, PDZ1-2 tandem of PSD-95 (Homo sapiens, UniProt P78352).
T1 construct: PDZ1-2 (residues 61-249) tandem; made in house; host or cells: E. coli BL21-DE3 pLysS
The data set is described as follows: FP heterologous competition binding assay. Particulars: mean ± SEM. The source says: (§1) Determined IC50 values may be converted to Ki values.^5 Suitable fluorophores include either 5-FAM or Cy5, which may be coupled to a tripeptide (KSG or CSG) linker attached to the N-terminus of the undecapeptide, to give 5-FAM-NR2B, Cy5-NR2B, 5-FAM-CRIPT and Cy5-CRIPT. The 5-FAM fluorophore may be attached to the undecapeptides by coupling with HATU. The Cy5 fluorophore may be conjugated to the undecapeptides by coupling Cy5-maleimide to the cysteine side chain of the tripeptide sequence CSG attached to the N-terminus of the peptide, as detailed in the Methodology section.
(§2) To measure the affinities between non-fluorescent peptides and PDZ domains, heterologous competition bindings assay were performed. This was done by adding increasing concentrations of peptide to a fixed concentration of Cy5-NR2B, 5-FAM-NR2B, Cy5-CRIPT or 5-FAM-CRIPT (50 nM) and PDZ (20 μM for PDZ1, 3 μM for PDZ2 and 1-2 and 5 μM for PDZ3) in the same TBS buffer and conditions as described above. FP values were then fitted to the general equation: Y=Bottom+(Top−Bottom)/[1[…](10̂^X-logIC50)], where X is the logarithmic value of peptide concentration. Hereby the IC50 value was obtained, which is used to calculate the theoretical competitive inhibition constant, Ki.^5
(§3) A convenient and reliable way to examine interactions between peptide analogues and PDZ domains is by using a fluorescence polarization (FP) assay. The three PDZ domains, PDZ1-3, of PSD-95 were expressed individually as set out above, while PDZ1-2 was also expressed as a tandem construct. […] IC50 values were then converted to Ki values.^5

The target of data set [3] is T2, PDZ1 of PSD-95 (Homo sapiens, UniProt P78352).
T2 construct: PSD-95 PDZ1 (residues 61-151); made in house; host or cells: E. coli BL21-DE3 pLysS
The data set is described as follows: FP heterologous competition binding assay. Particulars: for Ki: FP competition, mean ± SEM, NA = no activity/affinity.
From the text: as §1, §2, §3

The target in data set [4] is T3, PDZ2 of PSD-95 (Homo sapiens, UniProt P78352).
T3 construct: PDZ2 (residues 155-249); made in house; host or cells: E. coli BL21-DE3 pLysS
Nature of the data set: FP heterologous competition binding assay. Particulars: for Ki: FP competition, mean ± SEM, NA = no activity/affinity.
From the text: as §1, §2, §3

The target in data set [5] is T4, PDZ3 of PSD-95 (Homo sapiens, UniProt P78352).
T4 construct: PDZ3 (residues 309-401); made in house; host or cells: E. coli BL21-DE3 pLysS
Nature of the data set: FP heterologous competition binding assay. Particulars: FP competition; mean ± SEM; NA = no activity/affinity.
From the text: as §1, §2, §3

Setting [6] is: human, plasma, Blood plasma half life (T1/2).

IESDV-PEG4 [IESDV-PEG4 (91)]: the “fold increase in half life compared to non-pegylated peptide 7” value in data set [1] (human) is reported as “about 10 fold”. Also, in data set [1] (human, plasma), the “Blood plasma half life (T1/2)” value came to 10 h.

What is called Ki is the equilibrium dissociation constant of an inhibitor or competing ligand from its target. As for `CC(C)[C@H](NC(=O)[C@H](CC(=O)O)NC(=O)[C@H](CO)NC(=O)[C@@H](N)CCC(=O)O)C(=O)O` [ESDV (8), ESDV] (H-ESDV-OH; N-terminus and C-terminus assumed), the Ki was found to be 28 ± 2.9 µM in data set [2], 56 ± 2.4 µM in data set [3] and 28 ± 0.92 µM in data set [4]. Besides, the “fold increase in Ki (loss of affinity) compared to NR2B peptide (1), PDZ1” value in data set [3] came to 3.1 fold. For the same compound, the “fold increase in Ki (loss of affinity) compared to NR2B peptide (1), PDZ2” value in data set [4] is on record as 6.8 fold.

Turning to EMeTQV ([NMeE]TQV) [Compound 39], the “fold increase in affinity (more potent) compared to NR2B peptide (1), PDZ1” value in data set [3] is reported as “ca. 3 fold”. Further, the “affinity to PDZ2, in words” value in data set [4] (FP assay) is “only slightly less potent”.

In the case of `CC(C)[C@H](NC(=O)[C@H](C)NC(=O)[C@@H](NC(=O)[C@H](CCC(=O)O)NCCc1ccc(Cl)c(Cl)c1)C(C)O)C(=O)O` (stereo partly drawn) [Compound 61], the inhibition constant (Ki) in data set [4] turned out to be 1.1 ± 0.11 µM.

Consider `CC[C@H](C)[C@H](N)C(=O)N[C@@H](C)C(=O)N[C@H](C(=O)N(C)[C@@H](C)C(=O)N[C@H](C(=O)O)C(C)C)[C@@H](C)O` [IATAMeV (89), IATAMeV], for which the half-life at […] in data set [1] (setting [6]) was 0.533 h.

Turning to `CC(C)[C@H](NC(=O)[C@H](C)NC(=O)[C@@H](NC(=O)[C@H](CCC(=O)O)NCC1CCCCC1)C(C)O)C(=O)O` (stereo partly drawn) [Compound 55, N-Cyclohexylmethyl-ETAV], in data set [3], the “fold increase in affinity (more potent) compared to NR2B peptide (1), PDZ1” value is listed as “ca. 19 fold” and the Ki worked out at 1 ± 0.24 µM. In data set [5], the Ki was found to be 21 ± 0.64 µM.

`CC(C)[C@H](NC(=O)[C@H](C)NC(=O)[C@@H](NC(=O)[C@H](CCC(=O)O)NCCc1ccc(F)c(F)c1)C(C)O)C(=O)O` (stereo partly drawn) [Compound 62]: the Ki in data set [3] was around 1 µM; in data set [4], 1 ± 0.043 µM.

In the case of SDV, the “fold increase in Ki (loss of affinity) compared to NR2B peptide (1), PDZ1” value in data set [3] is recorded as above 20 fold. Besides, the “fold increase in Ki (loss of affinity) compared to NR2B peptide (1), PDZ2” value in data set [4] is recorded as above 30 fold.

In the case of “YGRKKRRQRRRKLSSIESDV [Tat-NR2B (3), reference compound]”, the half-life at […] in data set [1] (human blood plasma, 37° C., 0.25 mM, read-out: Blood plasma half life (T1/2)) amounted to 24.5 h.

In data set [1] (setting [6]), `CC[C@H](C)[C@H](NC(=O)CCOCCOCCOCCOCCOCCC(=O)N[C@H](C(=O)N[C@@H](C)C(=O)N[C@H](C(=O)N[C@@H](C)C(=O)N[C@H](C(=O)O)C(C)C)[C@@H](C)O)[C@@H](C)CC)C(=O)N[C@@H](C)C(=O)N[C@H](C(=O)N[C@@H](C)C(=O)N[C@H](C(=O)O)C(C)C)[C@@H](C)O` [(IATAV)2PEG4 (88), (IATAV)2PEG4] registered a half-life at […] of 2.05 h. Besides, the results for the Ki in data set [2] and in data set [4] were 1.1 ± 0.07 µM and 25 ± 0.88 µM, respectively.

In the case of `CCCN[C@@H](CCC(=O)O)C(=O)N[C@H](C(=O)N[C@@H](C)C(=O)N[C@H](C(=O)O)C(C)C)[C@@H](C)O` [Compound 53, N-Propyl-ETAV], in data set [3], the Ki was 7 ± 0.28 µM.

Regarding `CC(C)[C@H](NC(=O)[C@H](C)NC(=O)[C@@H](NC(=O)[C@H](CCC(N)=O)NCCC1CCCCC1)[C@@H](C)O)C(=O)O` [QTAV (72)], in data set [3], the Ki came to 21 ± 1.1 µM.
